Data set [1] concerns influenza virus A/Sydney/5/97 (H3N2). In kind it is in vivo. The conditions noted are these: for -log2 HA titer (mean ± SD): 9-day-old embryonated hen eggs, 100 EID50, 34 °C 48 h, allantoic fluid.
Data set [2] deals with influenza viral matrix protein mRNA. It is filed as cell-based, influenza virus.
Data set [3] has as its system influenza A/Sydney/5/97 (H3N2).
Another data set has as its system MDCK cells. The data set is described as follows: Cytotoxicity to MDCK cells (MTS-based assay). In kind it is cell-based, canine. To be noted: 48 h, read-out: CC50 (50% cytotoxic concentration). As to the method: (§1) An MTS-based assay was performed to evaluate the cytotoxic effects of the test compounds on MDCK cells. Approximately 5 × 10^4 cells/well were seeded in 96-well microplates in MEM with 10% FBS at 37 °C in a humidified 5% CO2 incubator. When the monolayer was confluent, the cells were washed twice with PBS and then treated with compounds diluted in serum-free MEM. After incubation at 37 °C for 48 h, 20 μL of MTS was added to each well, and the cells were incubated for 2 h. The absorbance at 490 nm was determined using a microplate reader. The cell viability was calculated using the following formula: cell viability (%) = (drug treatment – background)/(control – background) × 100%. The half-maximal cytotoxic concentration (CC50) of the compounds was defined as the concentration that reduced the A490 of compound-treated cells to 50% of that of untreated cells.
(Formazan colour is commonly taken as a measure of viable cells.)

In another data set the target is neuraminidase (NA) (Influenza A virus, UniProt Q80DL0). To be noted: for IC50: read-out: NA inhibitory activity IC50.
Data set [4] can be described thus: Cytotoxicity to MDCK cells (MTS-based assay). In kind it is cell-based, canine. To be noted: dog, read-out: CC50 (50% cytotoxic concentration). As to the method:
as §1

Data set [5] concerns influenza A/Sydney/5/97 (H3N2). The data set is described as follows: in vitro. To be noted: dog, MDCK cells.
Data set [6] has as its system influenza A/Sydney/5/97 (H3N2). Kind of data set: microbe, parasite or virus in culture. The conditions noted are these: H3N2, MDCK.
The test system of the next data set is hemagglutinin (HA). The data set is described as follows: Hemagglutination inhibition assay (guinea pig RBC). The conditions noted are these: 4 HAU virus, 1.5% guinea pig RBC.
Where [7] appears, read: read-out: Simultaneous treatment IC50.
[8] abbreviates: Post-treatment SI (selective index; CC50mean/IC50mean), post-treatment.
Where [9] appears, read: Simultaneous treatment SI (selective index; CC50mean/IC50mean), simultaneous treatment.
Where [10] appears, read: 72 h, read-out: Simultaneous treatment IC50.

Values joined by “and” are separate entries in the source; they are usually repeats but may differ in a detail not shown here. Identical values can stand only once. Like-named read-outs stand apart in the source and are kept apart here.

Here are results for 13 compounds from PMC5441103, “Antiviral activity of phenanthrenes from the medicinal plant Bletilla striata against influenza A virus” (BMC Complementary and Alternative Medicine, 2017).

For orientation: IC50 means the concentration that inhibits the measured activity by half.

Experimental for hemagglutinin (HA): The hemagglutination inhibition assay was used to study whether the compound could block the SA-containing receptors. The phenanthrenes from B. striata and oseltamivir phosphate were all tested Fresh guinea pig blood was collected at the Laboratory Animal Research Center of the Zhejiang Chinese Medical University, supplemented with 1.6% sodium citrate in sterile water. Then, red blood cells (RBC) were separated by centrifugation (800×g for 10 min at room temperature), washed three times with sterile PBS, and then suspended at a concentration of 1.5%. The least number of virus particles able to agglutinate the guinea pig RBC was determined in a serial virus dilution as four hemagglutination units (HAU). PBS instead of the compounds was used as the hemagglutinating positive control and no-virus RBC as the hemagglutinating negative control. Then, 50 μL of the compounds in serial twofold dilutions in PBS were mixed with 50 μL of 4 HAU influenza virus suspension, incubated for 1 h at 37 °C, mixed with an equal volume of 1.5% guinea pig RBC suspension for 1 h at room temperature, and then monitored for agglutination [10, 11].
Experimental for neuraminidase (NA): The neuraminidase inhibition assay was used to evaluate the effects of each compound on the neuraminidase activity of the influenza virus, according to the instructions of the Neuraminidase Inhibitors Screen Kit (Beyotime, China). Inhibition = [(C− S) / (C − C 0)] × 100%, where C is the fluorescence of the control (enzyme, buffer, and substrate) after 30 min of incubation, and C 0 is the fluorescence of the control (buffer and substrate). S is the fluorescence of the tested samples (enzyme, sample solution, and substrate) after incubation. Standard curves were made by plotting the percentage of fluorescence inhibition relative to the activity of virus controls against the log2 of concentrations. In addition, 10 μg/mL oseltamivir phosphate was used as the positive control. Then, 10 μL of NA in 70 μL of reaction buffer was mixed with equal volumes of twofold dilutions of the compounds. After a 2-min incubation at 37 °C, equal volumes (10 μL) of the substrate solution [2-(4-methylumbelliferyl)-α-D-N-acetylneuraminic acid sodium (4-MU-NANA)] were added, and the mixtures were further incubated for 30 min at 37 °C. The fluorescence intensity was measured using a fluorescence plate reader at an excitation wavelength of 322 nm and an emission wavelength of 450 nm. The 50% inhibitory concentration (IC50) was calculated by regression analysis with r ^2 ≥ 0.9, representing the mean values of three independent experiments [13, 29].

For “2,2′–dyhydroxyl-4,4′,7,7′-9′,10′-dihydro-1,6′-di-phenanthrene [Compound 11]”, the “Inhibition (%)” value in [1] (in vivo) is 0.00%. Further, the “Matrix protein mRNA transcription (normalized to GAPDH)” value in [2] was “stronger inhibitory effect”. Further, the IC50 was 35.2 ± 3.7 µM in [3] (read-out: Post-treatment IC50) and 38.6 ± 2.9 µM in data set [3] (setting [7]).
For the compound `COc1cc(O)cc2c1-c1ccc(O)cc1CC2` [Compound 1, 2,7-dyhydroxyl-4-methoxy-9,10-dihydro-phenanthrene], the CC50 in the data set with MDCK cells was 201 ± 18.6 µM. Besides, the “Matrix protein mRNA transcription (normalized to GAPDH)” value in [2] is reported as “stronger inhibitory effect”. Besides, in [3], the “Post-treatment IC50” value is listed as “- (The results showed that antiviral effects against A/Sydney/5/97(H3N2) were less than 50% inhibition)” and the “Simultaneous treatment IC50” value is “- (The results showed that antiviral effects against A/Sydney/5/97(H3N2) were less than 50% inhibition)”. Moreover, the IC50 on neuraminidase (NA) was found to be 72.6 ± 6.5 µM.
On to `COc1ccc2c(ccc3c(-c4c(O)cc(OC)c5c4CCc4cc(O)ccc4-5)c(O)cc(OC)c32)c1` [Compound 2, 2,2,7′-trihydroxy-4,4′,7-trimethoxy-9′,10′-dihydro-1,1′-diphenanthrene], for which, in the data set with MDCK cells, the CC50 came to 67.9 ± 13.1 µM. For the same compound, the “Matrix protein mRNA transcription (normalized to GAPDH)” value in data set [2] is given as “stronger inhibitory effect”. Further, in data set [3], the “Post-treatment SI (selective index; CC50mean/IC50mean)” value is listed as 2.2 and the “Simultaneous treatment SI (selective index; CC50mean/IC50mean)” value came to 2.3. Besides, the IC50 in data set [3] (read-out: Post-treatment IC50) came to 31.4 ± 2.1 µM. In addition, in data set [3] (setting [7]), the IC50 was determined as 28.6 ± 4.3 µM. The “NA inhibitory activity IC50” value at neuraminidase (NA) was “- (key: -: Inhibitory effect on the NA was less than 50%.)”.
Turning to `COc1ccc2c(ccc3c(-c4c(O)c(OC)cc5c4CCc4cc(O)cc(OC)c4-5)c(O)cc(OC)c32)c1` [Compound 3, 2,2′,7′-trihydroxy-3′,4,5′,7-tetramethoxy-9′,10′-dihydro-1,1′-di-phenanthrene], the CC50 in the data set on MDCK cells came to 50.3 ± 6.2 µM. Moreover, in [2], the “Matrix protein mRNA transcription (normalized to GAPDH)” value is given as “stronger inhibitory effect”. Moreover, the “Post-treatment SI (selective index; CC50mean/IC50mean)” value in data set [3] is reported as 2.2. Besides, in data set [3], the “Simultaneous treatment SI (selective index; CC50mean/IC50mean)” value turned out to be 2.5. The IC50 in [3] (read-out: Post-treatment IC50) came to 22.6 ± 1.8 µM; in [3] (setting [7]), 20.4 ± 3.2 µM; at neuraminidase (NA), 16.8 ± 1.6 µM.
`COc1cc(O)c2c(ccc3c(OC)c(O)ccc32)c1-c1c(OC)cc(O)c2c1ccc1c(OC)c(O)ccc12` [Compound 4, 4,4′,7,7′-tetrahydroxy-2,2′,8,8′-tetramethoxy-1,1′-di-phenanthrene]: the CC50 in the data set with MDCK cells was found to be 80 ± 20.1 µM. Besides, the “Matrix protein mRNA transcription (normalized to GAPDH)” value in data set [2] was “most efficient, even more powerful than oseltamivir”. In addition, the “Post-treatment SI (selective index; CC50mean/IC50mean)” value in data set [3] is given as 4.3. Also, the “Simultaneous treatment SI (selective index; CC50mean/IC50mean)” value in [3] amounted to 5.5. Moreover, the IC50 in data set [3] (read-out: Post-treatment IC50) worked out at 18.4 ± 3.1 µM; in data set [3] (setting [7]), 14.6 ± 2.4 µM; at neuraminidase (NA), 21.7 ± 2.9 µM.
On to `COc1cc(O)c2c(ccc3cc(O)ccc32)c1-c1c(OC)cc(O)c2c1ccc1c(OC)cccc12` [Compound 5, 4,4′,7′-trihydroxy-2,2′,8,-trimethoxy-1,1′-di-phenanthrene], for which, in data set [1] (in vivo), the “Inhibition (%)” value is 0.00% and 6.90% and 3.45%. For the same compound, the CC50 in the data set on MDCK cells is 96.8 ± 15.6 µM. Besides, in data set [3], the “Post-treatment IC50” value was “- (The results showed that antiviral effects against A/Sydney/5/97(H3N2) were less than 50% inhibition)” and the “Simultaneous treatment IC50” value is recorded as “- (The results showed that antiviral effects against A/Sydney/5/97(H3N2) were less than 50% inhibition)”. For the same compound, the “NA inhibitory activity IC50” value at neuraminidase (NA) is on record as “- (key: -: Inhibitory effect on the NA was less than 50%.)”.
On to `COc1cc(O)c2c(ccc3cc(O)ccc32)c1-c1c(OC)cc(O)c2c1ccc1cc(O)ccc12` [Compound 6, 4,4′,7,7′-tetrahydroxy-2,2′-dimethoxy-1,1′-di-phenanthrene], for which, in the data set on MDCK cells, the CC50 is 106 ± 21.2 µM. In [2], the “Matrix protein mRNA transcription (normalized to GAPDH)” value is on record as “stronger inhibitory effect”. In addition, the “Post-treatment SI (selective index; CC50mean/IC50mean)” value in [3] came to 2.8. In addition, the “Simultaneous treatment SI (selective index; CC50mean/IC50mean)” value in data set [3] came to 3.1. The IC50 was found to be 37.3 ± 3.2 µM in [3] (read-out: Post-treatment IC50), 33.8 ± 2.7 µM in [3] (setting [7]) and 16.1 ± 2.6 µM on neuraminidase (NA).
As to `COc1ccc2c(ccc3c(-c4c(OC)cc(O)c5c4ccc4cc(O)ccc45)c(OC)cc(O)c32)c1` [Compound 7, 4,4′,7-trihydroxy-2,2′,7′-trimethoxy-1,1′-di-phenanthrene], in data set [1] (in vivo), the “Inhibition (%)” value is reported as 0.00%. In the data set on MDCK cells, the CC50 was 130 ± 15.6 µM. Further, the “Matrix protein mRNA transcription (normalized to GAPDH)” value in data set [2] is “stronger inhibitory effect”. Besides, in data set [3], the “Post-treatment SI (selective index; CC50mean/IC50mean)” value is listed as 4.1. Moreover, the “Simultaneous treatment SI (selective index; CC50mean/IC50mean)” value in data set [3] is 4.5. The IC50 stood at 31.2 ± 2.2 µM in data set [3] (read-out: Post-treatment IC50) and 28.5 ± 2.8 µM in data set [3] (setting [7]). Moreover, at neuraminidase (NA), the “NA inhibitory activity IC50” value is listed as “- (key: -: Inhibitory effect on the NA was less than 50%.)”.
Turning to `COc1cc(O)c2c(ccc3cc(O)ccc32)c1-c1c(OC)cc(O)c2c1ccc1c(OC)c(O)ccc12` [Compound 8, 4,4′,7,7′-tetrahydroxy-2,2′,8-trimethoxy-1,1′-di-phenanthrene], the CC50 with MDCK cells is 111 ± 17.3 µM. In addition, in data set [3], the “Post-treatment IC50” value is listed as “- (The results showed that antiviral effects against A/Sydney/5/97(H3N2) were less than 50% inhibition)” and the “Simultaneous treatment IC50” value is “- (The results showed that antiviral effects against A/Sydney/5/97(H3N2) were less than 50% inhibition)”. Further, on neuraminidase (NA), the “NA inhibitory activity IC50” value is on record as “- (key: -: Inhibitory effect on the NA was less than 50%.)”.
For `COc1cc(O)c2c(c1)CCc1cccc(O)c1-2` [Compound 9, 4,5-dyhydroxyl-2-methoxy-9,10-dihydro-phenanthrene], in the data set on MDCK cells, the CC50 is 160 ± 20.4 µM. In addition, in data set [2], the “Matrix protein mRNA transcription (normalized to GAPDH)” value was “stronger inhibitory effect”. Also, in data set [3], the “Post-treatment IC50” value is listed as “- (The results showed that antiviral effects against A/Sydney/5/97(H3N2) were less than 50% inhibition)” and the “Simultaneous treatment IC50” value was “- (The results showed that antiviral effects against A/Sydney/5/97(H3N2) were less than 50% inhibition)”. Further, on neuraminidase (NA), the “NA inhibitory activity IC50” value is “- (key: -: Inhibitory effect on the NA was less than 50%.)”.
On to `COc1ccc2c(ccc3cc(O)cc(OC)c32)c1` [Compound 10, 2-hydroxyl-4,7-dimethoxyphenanthrene], for which the “-log2 HA titer (mean ± SD)” value in [1] (0.04 mmol/egg) amounted to 6.00 ± 0.71; in [1] (0.08 mmol/egg) it was 3.20 ± 0.40. For the same compound, the “Inhibition (%)” value in data set [1] (0.04 mmol/egg, embryonated hen eggs, 100 EID50, 48 h) was 0.00%; in data set [1] (0.08 mmol/egg, embryonated hen eggs, 100 EID50, 48 h) it was 44.8% and 44.83%. Also, the CC50 at 48 h in data set [4] turned out to be 142 ± 25 µM. For the same compound, the “Matrix protein mRNA transcription (normalized to GAPDH)” value in data set [2] is recorded as “stronger inhibitory effect”. For the same compound, the selectivity ratio at 72 h in [5] (setting [8]) was 3.4; in data set [5] (setting [9]) it was 3.3. Further, the IC50 is 43.3 ± 5.3 µM in data set [6] (setting [10]) and 42.3 ± 3.9 µM in [6] (read-out: Post-treatment IC50).
Regarding `COc1cc(O)cc2ccc3cc(O)ccc3c12` [Compound 12, 2,7-dyhydroxyl-4-methoxyphenanthrene], in the data set on MDCK cells, the CC50 was determined as 116 ± 16.8 µM. Besides, in data set [3], the “Post-treatment IC50” value is “- (The results showed that antiviral effects against A/Sydney/5/97(H3N2) were less than 50% inhibition)” and the “Simultaneous treatment IC50” value is on record as “- (The results showed that antiviral effects against A/Sydney/5/97(H3N2) were less than 50% inhibition)”. In addition, the “NA inhibitory activity IC50” value on neuraminidase (NA) is reported as “- (key: -: Inhibitory effect on the NA was less than 50%.)”.
Regarding `CCOC(=O)C1=C[C@@H](OC(CC)CC)[C@H](NC(C)=O)[C@@H](N)C1` [Oseltamivir, reference compound], in data set [1] (0.01 mmol/egg), the “-log2 HA titer (mean ± SD)” value was 0.00 ± 0.00. Besides, the “Inhibition (%)” value in [1] (0.01 mmol/egg, embryonated hen eggs, 100 EID50, 48 h) is reported as 100.00%. The CC50 at 48 h in data set [4] was 599 ± 62.1 µM. Further, the figures for the selectivity ratio at 72 h in [5] (setting [8]) and in [5] (setting [9]) were 665 and 122, respectively. In addition, the concentration for half-maximal inhibition (IC50) stood at 4.9 ± 0.9 µM in [6] (setting [10]) and 0.9 ± 0.2 µM in data set [6] (read-out: Post-treatment IC50). For the same compound, the “Inhibition of hemagglutination by the influenza virus” value with hemagglutinin (HA) is “could not inhibit hemagglutination”.
